Test results: a melting point compilation (Tetko et al.; mined from patent text by program, amines drawn as free bases though some values may be those of a salt)

Work on `COc1cc2ncc(C#N)c(Nc3ccc4[nH]ncc4c3)c2cc1OC` yielded a melting point of 290 to 295 °C.
`COC(=O)c1ccc(-c2nc(-c3ccccc3C(F)(F)F)cs2)cc1` showed a melting point of 122 to 123 °C.
With `NC(=O)Cc1cnc(Nc2n[nH]c3ccc(-c4ncccc4Cl)cc23)s1` the melting point was > 230 °C.
`COc1ncccc1Nc1c(NC(NC(=O)c2cccc(C)c2)C(C)(C)Cc2ccccc2)c(=O)c1=O` (stereo not drawn) gave a melting point of 233 to 235 °C.
`CCOC(=O)c1cccc(/C=C/C(=O)c2cc(O)ccc2[N+](=O)[O-])c1` showed a melting point of 157 to 159 °C.
For `O=C(CCl)Nc1c([N+](=O)[O-])cnn1-c1c(Cl)cc(C(F)(F)F)cc1Cl`, the melting point was 130 to 133 °C.
With `COc1cc(C(=O)C#CCOCC=C(C)C)cc(OC)c1OC` the melting point was 32 °C.
Compound `CN1C(=O)CCC2(C)c3ccc(-c4cccc(F)c4)cc3CCC12` (single isomer, unassigned; (+)) has a melting point of 116 to 120 °C.
Work on `C[C@H]1OC(=O)[C@@H]2C=C3CCCC[C@H]3[C@H](O)[C@H]12` yielded a melting point of 156 to 157 °C.
With `COC(=O)NC1=NC(c2ccc(C(C)C)cc2)CCN1` (stereo not drawn) the melting point was 195 to 197 °C.
`OCC(O)CNc1ncnc2c1ncn2C1OC(CO)C(O)C1O` (stereo not drawn) showed a melting point of 164 to 165 °C.
Compound `O=C1OCN(C(=O)OCc2ccccc2)[C@H]1CCBr` has a melting point of 85 °C.
With `COc1ccccc1N1CCN(C(=O)N(C)c2nc3ccccc3nc2OC)CC1` the melting point was 128 to 130 °C.
`N=C(O)c1cc(C(O)=Nc2ccc(O)cc2)c(C(=O)O)cc1C(=O)O` showed a melting point of 300 °C.
For `CCCCc1nc2c(N)nc3ccccc3c2n1OC(C)C`, the melting point was 118 to 119 °C.
Work on `O=C(O)c1cnn2c(C3CC3)cc(-c3ccc(Cl)cc3)nc12` yielded a melting point of 242 to 243 °C.
For `CC1(C)CCC(C)(C)c2c(O)cc(C=O)cc21`, the melting point was 144 °C.
With `CC12CCC(O)CC1=CCC1C2CCC2(C)C(=NC3CC3)CCC12` (stereo not drawn) the melting point was 187 °C.
Compound `COc1cc(O)c2c(=O)c(OC)c(-c3ccc(O)c(OC)c3)oc2c1` has a melting point of 171 to 173 °C.
With `CC[C@@H](C)[C@H](N)C(=O)N1CC(F)(F)C(F)(F)C1` the melting point was > 250 °C.
Work on `CS(=O)(=O)c1ccc(-n2nc(CNC(=O)Nc3cccc(C(F)(F)F)c3)cc2-c2ccccc2)cc1` yielded a melting point of 108 to 113 °C.
For `CC(C)(C)c1ccc2oc(-c3ccc(O)cc3)cc2c1`, the melting point was 172 to 174 °C.
In the case of `O=C1CCC(=O)N1c1cccc(OCc2nc3ccccc3s2)c1`, the melting point is reported as 175 to 176 °C.
`COC(=O)C(C)(C)c1ccc(C(=O)Nc2cn3cc(I)ccc3n2)cc1` showed a melting point of 234 to 235 °C.
`Cc1cc(-c2cccs2)ccc1C(=O)c1cccc2c1Nc1ncccc1CN2` gave a melting point of 118 to 120 °C.
Compound `CCNc1cccnc1N1CCN(C(=O)c2ccc(C(=O)NC(C)(C)CO)cn2)CC1` has a melting point of 128 to 130 °C.
In the case of `Cc1[nH]c(C(=O)SCC(=O)O)nc1-c1cc(C(C)(C)C)c(O)c(C(C)(C)C)c1`, the melting point is reported as 252 to 254 °C.
For `Oc1ccc(Cl)cc1-n1c(=S)[nH]c2cc(C(F)(F)F)ccc21`, the melting point was 248 to 250 °C.
`Nc1ccc(-c2cc3[nH]c4ccc(O)cc4c3c3c2C(=O)NC3=O)cc1` showed a melting point of 256 to 258 °C.
`COc1ccc2c(c1)CCC(c1ccncc1)O2` (stereo not drawn) gave a melting point of 88 to 91 °C.
For `CCCCONC(=O)c1nc(-c2ccc(Cl)c(OC)c2F)cc(N)c1Cl`, the melting point was 130 to 132 °C.
In the case of `Cc1nc(C)c(Cl)c(NCc2ccc(Oc3ccc4ncc([N+](=O)[O-])n4n3)cn2)n1`, the melting point is reported as 194 to 198 °C.
Compound `CC1(C)C(=O)Oc2ccc3ccc(Cn4cnnc4)cc3c21` has a melting point of 256 to 257 °C.
Work on `CCc1cnc(CSc2cnc(NC(C)=O)s2)o1` yielded a melting point of 147 to 148 °C.
`Cc1cccc(C(O)C2C(c3ccccc3)CC(=O)N2C)c1` (stereo not drawn) showed a melting point of 163 to 165 °C.
In the case of `N#Cc1c(C(F)(F)F)ccc(Cl)c1Cl`, the melting point is reported as 53 to 54 °C.
With `Cn1ccc(=O)c(O)c1C(O)c1ccccc1` (stereo not drawn) the melting point was 210 to 213 °C.
`C#Cc1cccc(Nc2ncnc3[nH]cc(-c4ccc(C)cc4)c23)c1` gave a melting point of 245 to 247 °C.
In the case of `CN(C)OCc1nnc2n1-c1ccc(Cl)cc1C(c1ccccc1)=NC2`, the melting point is reported as 174 °C.
`Nc1cc(N2C(=O)c3ccccc3C2=O)c(F)cc1Cl` showed a melting point of 148 °C.
`S=C(Cc1ccccc1)N1CCOCC1` gave a melting point of 115 to 116 °C.
With `Cc1sc(-c2ccccc2)nc1COc1ccc(CCC[C@@H](O)C(=O)O)cc1` the melting point was 117 to 118 °C.
`CN(c1cccc2cc(C3=NCC4(CCC5(CC4)OCCO5)S3)[nH]c12)S(=O)(=O)c1cccs1` gave a melting point of 224 to 225 °C.
